Experimental data taken from article PMC5971566, “Population Pharmacokinetic Analyses for Rezafungin (CD101) Efficacy Using Phase 1 Data” (Antimicrobial Agents and Chemotherapy, 2018).
Numbered stars: 1 amine (or outer) side, 2 acyl side, 3 side chain; on linkers, the order of the positions; unused ones are H or OH. Bridge positions count the residues as written; N and C are the ends. Square brackets hold non-standard residues; d marks the D form. Peptide text beside a SMILES is read from it. * marks the point of attachment. Orn(4R-OH,5R-OCH2CH2NMe3+) = C[N+](C)(C)CCO[C@@H](N[*:3])[C@H](O)C[C@H](N[*:1])C(=O)[*:2]; pTerphenylCO(4''-OnC5H11) = CCCCCOc1ccc(-c2ccc(-c3ccc(C(=O)*)cc3)cc2)cc1; hTyr(3S-OH,4S-OH) = N[C@H](C(=O)O)[C@H](O)[C@@H](O)c1ccc(O)cc1; Pro(3S-OH,4S-Me) = C[C@H]1CN[C@H](C(=O)O)[C@H]1O; Hyp = O=C(O)[C@@H]1C[C@@H](O)CN1

What was measured:
[1] = Population PK model of rezafungin plasma concentrations, pooled phase 1 single- and multiple-ascending-dose i.v. data; assay type: in vivo, humans (healthy subjects)
Source text: Data were pooled from two phase 1 studies (ClinicalTrials.gov registration no. NCT02516904 and NCT02551549) previously described by Sandison et al. ([8]). The protocols and informed consent were reviewed and approved by an appropriate institutional review board before subject enrollment. The studies were designed and monitored in compliance with the ethical principles of good clinical practice and in accordance with the Declaration of Helsinki.
The first study (ClinicalTrials.gov registration no. NCT2516904) evaluated single i.v. doses of rezafungin. A total of 32 subjects were enrolled and randomized evenly to one of four cohorts. Within each cohort, six subjects were administered rezafungin and two subjects were administered placebo as a single 60-min i.v. infusion. A single rezafungin dose of 50, 100, 200, and 400 mg was administered to cohorts 1, 2, 3, and 4, respectively. In all cohorts, blood samples for PK evaluations were collected predose and at 0.25, 0.5, 1, 1.5, 2, 4, 6, 8, 12, 24, 48, and 120 h after the start of infusion and on days 7, 14 (±1 day), and 21 (±1 day).
The second study (ClinicalTrials.gov registration no. NCT02551549) evaluated multiple i.v. doses of rezafungin. A total of 24 subjects were enrolled and randomized evenly to one of three cohorts. Within cohorts 1 and 2, six subjects were administered once-weekly i.v. doses of rezafungin at 100 and 200 mg, respectively, and two subjects were administered once-weekly i.v. doses of placebo, infused over 60 min on days 1 and 8. Within cohort 3, six subjects were administered once-weekly i.v. rezafungin doses of 400 mg and two subjects were administered once-weekly i.v. doses of placebo, infused over 60 min on days 1, 8, and 15. Blood samples were collected predose and at 0.5, 1, 1.5, 2, 4, 6, 8, 12, 24, 48, and 120 h after the start of each infusion and on days 7, 14 (±1 day), 21 (±1 day), and 35 (±1 day, cohort 3 only).
(§1) All blood samples were collected using tubes with K2-EDTA. Plasma was collected by centrifugation and stored at −70°C until analysis. Samples were analyzed using a 100-μl aliquot volume and a protein-precipitation extraction procedure followed by liquid chromatography/tandem mass spectrometry analysis. The rezafungin calibration range was 10.0 ng/ml to 10,000 ng/ml, using d9-CD101 as an internal standard. The range of the assay was extended 10-fold by dilution. An AB-Sciex API 4000 system was operated in the selected reaction-monitoring mode under optimized conditions for detection of rezafungin and d9-CD101 positive ions formed by electrospray ionization. Excellent interassay accuracy and precision, as measured by the use of quality control (QC) samples, were obtained during validation. Across the range of QC samples tested (lower limit of quantitation through the high-QC range), the interassay accuracy (percent bias from nominal) ranged from 0.3% to 4.3%, while the interassay precision (percent CV) ranged from 2.7% to 5%. Dilution QC samples performed well, with −1.5% bias and an interassay precision of 3.4%.
Candidate population PK models were fit to the pooled data using Monte Carlo parametric expectation maximization as implemented in the open-source software program S-ADAPT (version 1.5.6) ([22][–][24]). The model selection criteria used to discriminate between candidate PK models included (i) evaluation of individual and population mean parameter estimates and their precision (standard error of the mean [SEM]), (ii) graphical examination of standard goodness-of-fit plots and plots of the observed versus individual predicted concentrations, (iii) reductions in both residual variability and interindividual variability, and (iv) comparison of the objective function for nested models or the Akaike information criterion ([25]) for either nested or nonnested models.
Interindividual variability was estimated for each structural population PK model parameter, where possible, by using an exponential-error model. […]

[2] = Stability of rezafungin in plasma samples (bioanalytical validation, LC-MS/MS); assay type: in vitro ADME; conditions: K2-EDTA plasma samples
Description: as §1

[3] = 400 mg the highest dose evaluated; cited from earlier work
Description: One of the unique features of rezafungin is its long half-life. […] This value far exceeds those reported for other echinocandins, which have terminal half-lives ranging from 9 to 52 h ([9][–][11]). […] Moreover, the model- ...

[4] = cited from earlier work
Description: One of the unique features of rezafungin is its long half-life. […] This value far exceeds those reported for other echinocandins, which have terminal half-lives ranging from 9 to 52 h ([9][–][11]). […] Given rezafungin's long half-life, it is being evaluated ...

[5] = tested on: C. albicans isolates; conditions: cited from earlier work
Source text: (§2) Historically, Candida albicans has been the predominant pathogen in candidemia and invasive candidiasis infections ([1]). Despite this, Candida glabrata is now emerging as a greater concern for clinicians due to a recent increase in prevalence among candidemia and invasive candidiasis infections and the pathogen's natural predisposition for expressing azole and echinocandin resistance mutations ([2], [3]). Accordingly, the incidence of infections due to C. glabrata not only has increased more than 4-fold over the past 20 years ([4]) but also has been accompanied by an increased prevalence of b ...

[6] = tested on: C. glabrata isolates; conditions: including an echinocandin-resistant C. glabrata isolate; cited from earlier work
Source text: as §2

[7] = tested on: Candida albicans; conditions: including azole- and echinocandin-resistant isolates; ref not given; cited from earlier work
Source text: as §2

[8] = tested on: Candida glabrata; conditions: including azole- and echinocandin-resistant isolates; ref not given; cited from earlier work
Source text: as §2

[9] = healthy subjects n = 42, i.v., four-compartment population PK model
[10] = weight power function centered on 75 kg, power fixed to 0.75
[11] = weight power function centered on 75 kg, power fixed to 1.0

CCCCCOc1ccc(-c2ccc(-c3ccc(C(=O)N[C@H]4C[C@@H](O)[C@@H](OCC[N+](C)(C)C)NC(=O)[C@@H]5[C@@H](O)[C@@H](C)CN5C(=O)[C@H]([C@@H](C)O)NC(=O)[C@H]([C@H](O)[C@@H](O)c5ccc(O)cc5)NC(=O)[C@@H]5C[C@@H](O)CN5C(=O)[C@H]([C@@H](C)O)NC4=O)cc3)cc2)cc1 [Rezafungin] ({pTerphenylCO(4''-OnC5H11)}-[Orn(4R-OH,5R-OCH2CH2NMe3+)]T[Hyp][hTyr(3S-OH,4S-OH)]T[Pro(3S-OH,4S-Me)]; lactam 1-C)
rezafungin clearance, typical 50-kg subject ([1]; final population PK model, allometric scaling, 50 kg): 0.138 L/h | rezafungin clearance, typical 100-kg subject ([1]; final population PK model, allometric scaling, 100 kg): 0.232 L/h | Q2, distributional clearance, population mean final estimate [1, 9]: 24.4 L/h | Q3, distributional clearance, population mean final estimate [1, 9]: 0.912 L/h | Q4, distributional clearance, population mean final estimate [1, 9]: 0.0739 L/h | V2, volume of distribution of the peripheral compartment, population mean final estimate [1, 9]: 12.6 L | V3, volume of distribution of the peripheral compartment, population mean final estimate [1, 9]: 8.75 L | V4, volume of distribution of the peripheral compartment, population mean final estimate [1, 9]: 27.9 L | Vc, volume of distribution of the central compartment, population mean final estimate [1, 9]: 8.94 L | clearance ([1]; human, iv, healthy subjects n = 42, i.v. 60-min infusion 50-400 mg single or once weekly, plasma, linear four-compartment model, S-ADAPT, read-out: CL, total clearance, population mean final estimate (converted)): 3.13 mL/min | CL coefficient, population mean final estimate [1, 10]: 0.187 liter/h/75 kg | Q2 coefficient, population mean final estimate [1, 10]: 24.3 liters/h/75 kg | Q3 coefficient, population mean final estimate [1, 10]: 0.908 liter/h/75 kg | Q4 coefficient, population mean final estimate [1, 10]: 0.0736 liter/h/75 kg | V2 coefficient, population mean final estimate [1, 11]: 12.5 liters/75 kg | V3 coefficient, population mean final estimate [1, 11]: 8.70 liters/75 kg | V4 coefficient, population mean final estimate [1, 11]: 27.7 liters/75 kg | Vc coefficient, population mean final estimate [1, 11]: 8.88 liters/75 kg | freeze-thaw stability [2]: stable through four freeze-thaw cycles | stability under frozen storage conditions ([2]; either at −20°C or at −70°C): at least 164 days | stability at room temperature ([2]; room temperature): at least 24 h | dose proportionality of maximum concentration, AUC and half-life [3]: dose proportional up to 400 mg | serious or severe adverse events ([4]; either phase 1 study): No serious or severe adverse events were observed | patients with moderate treatment-related adverse events ([4]; of the 42 patients evaluated, phase 1 studies): 4 | safety signals ([4]; phase 1 studies): no safety signals were noted | in vivo activity against a range of C. albicans isolates [5]: in vivo activity | in vivo activity against a range of C. glabrata isolates [6]: in vivo activity | in vitro activity against C. albicans [7]: potent in vitro activity | in vitro activity against C. glabrata [8]: potent in vitro activity
